Literature values, collected in US9504685B2, “Method for treating a pulmonary hypertension condition” (Gilead Sciences, Inc., priority 2006, dated 2016).

What was measured:
p450 = conditions: cited from earlier work
ETA receptor = target: T1, ETA receptor (Homo sapiens, UniProt P25101); conditions: read-out: affinity for the ETA receptor; cited from earlier work
T1 sequence (P25101 21-427): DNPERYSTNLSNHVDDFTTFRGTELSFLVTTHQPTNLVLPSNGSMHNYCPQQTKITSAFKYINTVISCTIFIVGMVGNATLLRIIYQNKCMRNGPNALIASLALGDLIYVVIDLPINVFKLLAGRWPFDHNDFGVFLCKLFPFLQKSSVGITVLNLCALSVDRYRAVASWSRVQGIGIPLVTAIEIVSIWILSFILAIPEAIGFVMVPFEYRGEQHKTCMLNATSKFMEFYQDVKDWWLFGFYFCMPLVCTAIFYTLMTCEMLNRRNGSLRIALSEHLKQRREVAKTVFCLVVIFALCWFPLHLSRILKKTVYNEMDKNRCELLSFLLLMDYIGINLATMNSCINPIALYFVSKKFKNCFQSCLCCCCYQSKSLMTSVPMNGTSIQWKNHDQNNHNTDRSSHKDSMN

COC(c1ccccc1)(c1ccccc1)[C@H](Oc1nc(C)cc(C)n1)C(=O)O [ambrisentan]
drug interactions (p450 induction or inhibition) (p450): no p450 induction or inhibition
Ki (ETA receptor): ~0.012 nM
